{
  "source": "patent US20030013099A1",
  "about": "“Genes regulated by DNA methylation in colon tumors” (priority 2001, published 2003)",
  "tested_on": "HMEC cells",
  "experiment": "microarray differential expression, HMEC cells treated with Aza",
  "type": "cell-based, human",
  "details": "vs untreated, log base 2, negative = upregulation",
  "procedure": "HT29 cells were derived from a Grade II adenocarcinoma of the colon obtained from a person. HCT116 cells are a subpopulation of malignant cells isolated from a primary cell culture of a single human colonic carcinoma (Brattain et al. (1981) Cancer Res 41:1751-6). HMEC cells are a primary human epithelial cell line derived from the breast tissue of a normal donor. […] Treated cells were exposed to 500 nM 5-aza-2-deoxycytidine (Aza; Sigma-Aldrich) 24 hours after passage in complete culture medium. Control cultures were treated in parallel with phosphate buffered saline vehicle. After twenty-four hours, culture medium was replaced with drug-free medium. Control and Aza-treated cells were subcultured at equal densities at 1 and 5 days after the initial treatment, and proliferation was measured at the subsequent time point using a Coulter counter (Beckman Coulter, Fullerton Calif.). […]\nCells were harvested and lysed in 1 ml of TRIZOL reagent (5×10^6 cells/ml; Invitrogen). The lysates were vortexed thoroughly and incubated at room temperature for 2-3 minutes and extracted with 0.5 ml chloroform. The extract was mixed, incubated at room temperature for 5 minutes, and centrifuged at 16,000× g for 15 minutes at 4° C. The aqueous layer was collected, and an equal volume of isopropanol was added. Samples were mixed, incubated at room temperature for 10 minutes, and centrifuged at 16,000× g for 20 minutes at 4° C. The supernatant was removed, and the RNA pellet was washed with 1 ml of 70% ethanol, centrifuged at 16,000× g at 4° C., and resuspended in RNAse-free water. The concentration of the RNA was determined by measuring the optical density at 260 nm.\nPoly(A) RNA was prepared using an OLIGOTEX mRNA kit (Qiagen) with the following modifications: OLIGOTEX beads were washed in tubes instead of on spin columns, resuspended in elution buffer, and then loaded onto spin columns to recover mRNA. To obtain maximum yield, the mRNA was eluted twice.\nEach poly(A) RNA sample was reverse transcribed using MMLV reverse-transcriptase, 0.05 pg/μl oligo-d(T) primer (21mer), 1× first strand buffer, 0.03 units/ul RNAse inhibitor, 500 uM dAT?, 500 uM dGTP, 500 uM dTTP, 40 uM dCTP, and 40 uM either dCTP-Cy3 or dCTP-Cy5 (APB). The reverse transcription reaction was performed in a […] volume containing 200 ng poly(A) RNA using the GEMBRIGHT kit (Incyte Genomics). Specific control poly(A) RNAs (YCFRO6, YCFR45, YCFR67, YCFR85, YCFR43, YCFR22, YCFR23, YCFR25, YCFR44, YCFR26) were synthesized by in vitro transcription from non-coding yeast genomic DNA (W. Lei, unpublished). As quantitative controls, control mRNAs (YCFRO6, YCFR45, YCFR67, and YCFR85) at 0.002 ng, 0.02 ng, 0.2 ng, and 2 ng were diluted into reverse transcription reaction at ratios of 1:100,000, 1:10,000, 1:1000, 1:100 (w/w) to sample mRNA, respectively. To sample differential expression patterns, control mRNAs (YCFR43, YCFR22, YCFR23, YCFR25, YCFR44, YCFR26) were diluted into reverse transcription reaction at ratios of 1:3, 3:1, 1:10, 10:1, 1:25, 25:1 (w/w) to sample mRNA. Reactions were incubated at 37° C. for 2 hours, treated with […] of 0.5M sodium hydroxide, and incubated for 20 minutes at 85° C. to the stop the reaction and degrade the RNA.\ncDNAs were purified using two successive CHROMA SPIN 30 gel filtration spin columns (Clontech). Cy3- and Cy5-labeled reaction samples were combined as described below and ethanol precipitated using […] of 100% ethanol. The cDNAs were then dried to completion using a SpeedVAC system (Savant Instruments, Holbrook N.Y.) and resuspended in 14 μl 5× SSC, 0.2% SDS.\nHybridization reactions contained 9 μl of sample mixture containing 0.2 μg each of Cy3 and CyS labeled cDNA synthesis products in 5× SSC, 0.2% SDS hybridization buffer. The mixture was heated to 65° C. for 5 minutes and was aliquoted onto the microarray surface and covered with an 1.8 cm^2 coverslip. […]",
  "key": {"[1]": {"details": "SEQ ID NO:33 cDNA clone YU62C03"}, "[2]": {"details": "SEQ ID NO:37, 38 MAGE-4b antigen"}, "[3]": {"details": "SEQ ID NO:49 phospholipid scramblase 1"}, "[4]": {"details": "SEQ ID NO:50 retinoid inducible gene 1"}, "[5]": {"details": "SEQ ID NO:51 interferon induced"}, "[6]": {"details": "SEQ ID NO:56 hepatitis C-associated microtubular aggregate"}, "[7]": {"details": "SEQ ID NO:58 Similar to keratin 7"}},
  "data": [
    {"smiles": "Nc1ncn([C@H]2C[C@H](O)[C@@H](CO)O2)c(=O)n1", "note": "[Aza, 5-aza-2-deoxycytidine]", "values": [
      {"measurement": "differential expression, Clone ID 4764233, HMEC t/Aza (9d)", "setting": "SEQ ID NO:30 GAGE-8", "result": 0.00},
      {"measurement": "differential expression, Clone ID 2511379, HMEC t/Aza (4d)", "setting": "SEQ ID NO:31 GAGE-7B", "result": 0.32},
      {"measurement": "differential expression, Clone ID 2511379, HMEC t/Aza (9d)", "setting": "SEQ ID NO:31 GAGE-7B", "result": 0.32},
      {"measurement": "differential expression, Clone ID 2471817, HMEC t/Aza (4d)", "setting": "[1]", "result": 0.07},
      {"measurement": "differential expression, Clone ID 2471817, HMEC t/Aza (9d)", "setting": "[1]", "result": 0.00},
      {"measurement": "differential expression, Clone ID 3333736, HMEC t/Aza (4d)", "setting": "SEQ ID NO:34 MAGE-11 antigen", "result": 0.06},
      {"measurement": "differential expression, Clone ID 3333736, HMEC t/Aza (9d)", "setting": "SEQ ID NO:34 MAGE-11 antigen", "result": 0.00},
      {"measurement": "differential expression, Clone ID 1304365, HMEC t/Aza (4d)", "setting": "SEQ ID NO:35 GAGE-8", "result": 0.00},
      {"measurement": "differential expression, Clone ID 1304365, HMEC t/Aza (9d)", "setting": "SEQ ID NO:35 GAGE-8", "result": 0.00},
      {"measurement": "differential expression, Clone ID 2657056, HMEC t/Aza (4d)", "setting": "[2]", "result": 0.13},
      {"measurement": "differential expression, Clone ID 2657056, HMEC t/Aza (9d)", "setting": "[2]", "result": 0.00},
      {"measurement": "differential expression, Clone ID 2507719, HMEC t/Aza (4d)", "setting": "SEQ ID NO:39 MAGE-9 antigen", "result": "−0.48"},
      {"measurement": "differential expression, Clone ID 2507719, HMEC t/Aza (9d)", "setting": "SEQ ID NO:39 MAGE-9 antigen", "result": "−0.24"},
      {"measurement": "differential expression, Clone ID 4688, HMEC t/Aza (4d)", "setting": "SEQ ID NO:41 MAGE-1", "result": "−0.13"},
      {"measurement": "differential expression, Clone ID 4688, HMEC t/Aza (9d)", "setting": "SEQ ID NO:41 MAGE-1", "result": "−0.13"},
      {"measurement": "differential expression, Clone ID 2068708, HMEC t/Aza (4d)", "setting": "SEQ ID NO:42 HM74", "result": "−0.50"},
      {"measurement": "differential expression, Clone ID 2068708, HMEC t/Aza (9d)", "setting": "SEQ ID NO:42 HM74", "result": "−0.24"},
      {"measurement": "differential expression, Clone ID 23770, HMEC t/Aza (4d)", "setting": "SEQ ID NO:43 1-8D", "result": "−0.48"},
      {"measurement": "differential expression, Clone ID 23770, HMEC t/Aza (9d)", "setting": "SEQ ID NO:43 1-8D", "result": "−0.63"},
      {"measurement": "differential expression, Clone ID 1616783, HMEC t/Aza (4d)", "setting": "SEQ ID NO:45 Incyte Unique", "result": "−0.53"},
      {"measurement": "differential expression, Clone ID 1616783, HMEC t/Aza (9d)", "setting": "SEQ ID NO:45 Incyte Unique", "result": "−0.20"},
      {"measurement": "differential expression, Clone ID 820942, HMEC t/Aza (4d)", "setting": "SEQ ID NO:46 cDNA FLJ20120", "result": "−0.48"},
      {"measurement": "differential expression, Clone ID 820942, HMEC t/Aza (9d)", "setting": "SEQ ID NO:46 cDNA FLJ20120", "result": "−0.20"},
      {"measurement": "differential expression, Clone ID 891322, HMEC t/Aza (4d)", "setting": "SEQ ID NO:47 Incyte Unique", "result": 0.00},
      {"measurement": "differential expression, Clone ID 891322, HMEC t/Aza (9d)", "setting": "SEQ ID NO:47 Incyte Unique", "result": 0.00},
      {"measurement": "differential expression, Clone ID 2755836, HMEC t/Aza (4d)", "setting": "SEQ ID NO:48 U5 A RNA", "result": "−0.26"},
      {"measurement": "differential expression, Clone ID 2755836, HMEC t/Aza (9d)", "setting": "SEQ ID NO:48 U5 A RNA", "result": "−0.31"},
      {"measurement": "differential expression, Clone ID 1227521, HMEC t/Aza (4d)", "setting": "[3]", "result": "−0.19"},
      {"measurement": "differential expression, Clone ID 1227521, HMEC t/Aza (9d)", "setting": "[3]", "result": "−0.63"},
      {"measurement": "differential expression, Clone ID 2200842, HMEC t/Aza (4d)", "setting": "[4]", "result": 0.00},
      {"measurement": "differential expression, Clone ID 2200842, HMEC t/Aza (9d)", "setting": "[4]", "result": 0.00},
      {"measurement": "differential expression, Clone ID 2238363, HMEC t/Aza (4d)", "setting": "[5]", "result": "−0.50"},
      {"measurement": "differential expression, Clone ID 2238363, HMEC t/Aza (9d)", "setting": "[5]", "result": "−0.29"},
      {"measurement": "differential expression, Clone ID 1495382, HMEC t/Aza (4d)", "setting": "SEQ ID NO:53 TRAIL", "result": "−0.48"},
      {"measurement": "differential expression, Clone ID 1495382, HMEC t/Aza (9d)", "setting": "SEQ ID NO:53 TRAIL", "result": "−0.19"},
      {"measurement": "differential expression, Clone ID 1998269, HMEC t/Aza (4d)", "setting": "SEQ ID NO:55 rhoB", "result": "−0.29"},
      {"measurement": "differential expression, Clone ID 1998269, HMEC t/Aza (9d)", "setting": "SEQ ID NO:55 rhoB", "result": "−0.68"},
      {"measurement": "differential expression, Clone ID 1919287, HMEC t/Aza (4d)", "setting": "[6]", "result": 0.00},
      {"measurement": "differential expression, Clone ID 1919287, HMEC t/Aza (9d)", "setting": "[6]", "result": 0.00},
      {"measurement": "differential expression, Clone ID 2637446, HMEC t/Aza (4d)", "setting": "SEQ ID NO:57 HE4 protein", "result": 0.00},
      {"measurement": "differential expression, Clone ID 2637446, HMEC t/Aza (9d)", "setting": "SEQ ID NO:57 HE4 protein", "result": 0.00},
      {"measurement": "differential expression, Clone ID 1962141, HMEC t/Aza (4d)", "setting": "[7]", "result": 0.00},
      {"measurement": "differential expression, Clone ID 1962141, HMEC t/Aza (9d)", "setting": "[7]", "result": "−0.07"},
      {"measurement": "differential expression, Clone ID 4933404, HMEC t/Aza (4d)", "setting": "SEQ ID NO:60 Incyte Unique", "result": 0.96},
      {"measurement": "differential expression, Clone ID 4933404, HMEC t/Aza (9d)", "setting": "SEQ ID NO:60 Incyte Unique", "result": 0.48},
      {"measurement": "differential expression, Clone ID 2150288, HMEC t/Aza (4d)", "setting": "SEQ ID NO:61 Keratin 8", "result": "−0.67"},
      {"measurement": "differential expression, Clone ID 2150288, HMEC t/Aza (9d)", "setting": "SEQ ID NO:61 Keratin 8", "result": "−0.42"},
      {"measurement": "differential expression, Clone ID 2697455, HMEC t/Aza (4d)", "setting": "SEQ ID NO:61 Keratin 8", "result": "−0.63"},
      {"measurement": "differential expression, Clone ID 2697455, HMEC t/Aza (9d)", "setting": "SEQ ID NO:61 Keratin 8", "result": "−0.37"}
    ]}
  ]
}
